According to patent US20140076194A1, “ANTIFOULING BY ADHESION SUPPRESSION” (PURDUE RESEARCH FOUNDATION, priority 2011, published 2014):

Tests used:
mussel = experiment: Mussel plaque adhesion to coated plates (Instron tensile pull of individual plaques); assay type: in vivo; parameters: Total Animal Removal Force: unit not given here; conditions: for total animal removal force (in words): Tables 4A and 4B, upon addition of antioxidant, versus DBT control; for mussel adhesion (in words): antioxidant or reducing agent in coating; for force to detach animal: estimated from number of plaques and adhesion per plaque, primer control ~5.6 N; for # of plaques (average): primer control 11.3
Description: In order to obtain insights on the antifouling potential of a given coating, we would benefit from a rapid laboratory method to quantify adhesion. Coatings that show decreased adhesion in such a laboratory test can then be sent to other investigators for assays with different organisms as well as field testing. We have recently developed a method for determining the adhesion strength of mussels to surfaces. The adhesive system of mussels lends itself well to precise force measurements. Mussels are placed on a candidate coating for adhesive deposition. The area (m^2) of each plaque is determined by digital photography and use of image analysis software. Individual plaques are then pulled from the surface using clamps in an Instron materials testing system (as illustrated in FIG. 3). […] Beyond simply looking for new antifouling coatings to decrease mussel adhesion, we also take note of the adhesive failure modes on new coatings versus controls. […] Thread breakage is also possible but minimized to nearly zero with our adhesion method. When mussels adhere strongly to a given surface, more cohesive failure is often observed or a mix of both cohesive and adhesive failure. If we inhibit curing of the glue with radical inhibitors on the surface, we may find that more adhesive or cohesive failure is observed. Overall, use of this mussel adhesion assay provides quantitative data on the ability of a candidate antifouling coating to inhibit bioadhesion. Here we will use this assay on each coating. Coatings that decrease mussel adhesion substantially will be carried on to further testing. As an operative example, the animal adheres to a given surface (e.g., aluminum plate). […] The animal is removed by cutting the connecting threads at the shell line. At this point, we are left with the surface, an adhesive plaque, and the thread. Adhesion forces must be normalized for surface contact area. Complete adhesion measurement methods includes obtaining data on the plaque-surface contact area. Mussel plaques are typically not perfect circles or ovals. The small size (approximately 2 mm diameter) and irregular shape may complicate obtaining accurate areas. Prior to adhesive testing, a photograph is taken of the plaque. A Nikon (Melville, N.Y., USA) […] digital camera fitted with a Nikon 50 mm f-1.8 lens and a Kenko 12 mm extension tube is held on a small tripod while the lens is oriented directly onto the plate below. The lens is approximately 18 cm above the plates being photographed. Typical exposure settings include f=3.5, 1/15 second shutter speed, and 200 ISO. Ambient light should be sufficient to capture the images. Photographs are taken in JPEG format at maximum resolution ( 3.3 MB per image). Individual plaques are numbered using a marker prior to taking the photograph so that the numbers are included in the image. These labels allow correlation of specific plaques to tensile strength data. At the time of photographing the plaques, area standards are also photographed. The digital images of the plates can be later revisited for calculating surface area. Image analysis software counts pixels within the plaque, relative to a standard, to provide area (m^2). […] Plates bearing plaques and threads are clamped to the base of the Instronl 5544 materials testing system. A custom designed stainless steel base is fabricated for these experiments. The base is a circular platform 15 cm in diameter with a post and pinhole on the bottom, allowing bolting into the bottom mount of the Instron. Test plates with adhesive are fastened to this base with two Quick-Grip Handi Clamps (Wilmington, Ohio, USA) holding down opposite corners. The Instron is fitted with one screw-action grip (part 2710-004) on the top and a 5N load cell. Detachment force measurements begin by lowering the grips directly over an individual plaque. The thread is lifted by hand and is placed in between the grips. The grips are then tightened over the thread. […]

[1] = Water contact angle of coatings; assay type: physicochemical; conditions: metal primer coating with BHT; metal primer coating alone approximately 106°
Protocol: In some cases added solvent helps the dissolution. We use the same solvent already in the commercial coating (e.g., xylenes or acetone). After curing is complete, the resulting coating is inspected and compared to the control of a similar coating without the adhesion inhibitor. If we observe a lack of curing, crystallization of inhibitors on the surface, lower coating modulus, or color changes the formulation may be discarded from consideration. Water contact angles are then measured for both the coatings and all controls (e.g., coating without inhibitor). Typically the coatings have very similar water contact angles as the controls (e.g., similar to within ˜5°). Large differences in contact angles will also lead to discarding a candidate antifouling formulation. A further narrowing of candidate coatings then takes place. We examine water contact angles (i.e., surface energy) of the evaporative coatings with an antioxidant versus without an added inhibitor. Any coatings with added inhibitor that changes water contact angle by more than 5° may be eliminated from further testing. […] It is envisioned that these modifications are not indicative of whether a particular reductive coating is an effective antifouling coating. […] As part of this selection process, we have approximately twenty (20) coatings to examine, into which we could place approximately eight (8) different antioxidants.

[2] = 2.5% additive in primer, Table 4B
[3] = 25% additive in primer, Table 4A
[4] = 25% additive in primer, Table 4C, recent data with variations versus Table 4A
[5] = Coating: 2.5% (w/w), Table 5B, FIG. 6
[6] = Coating: 25% (w/w), Table 5A, FIG. 5
[7] = primer + 2.5% BHT (w/w) coating, Table 3
[8] = primer + 25% BHT (w/w) coating, Table 3

SMILES | % Adhesive Failure (mussel; [2]) [%] | Adhesive Failure (mussel; [2]) [kPa] | Mean Adhesion (mussel; [2]) [kPa] | Plaques/Mussel (mussel; [2]) | Total Animal Removal Force (mussel; [2]) | % Adhesive Failure (mussel; [3]) [%] | Adhesive Failure (mussel; [3]) [kPa] | Mean Adhesion (mussel; [3]) [kPa] | Plaques/Mussel (mussel; [3]) | Total Animal Removal Force (mussel; [3]) | Adhesion (mussel; [4]) [kPa] | Average Force (mussel; [4]) [N] | Average Adhesion (kPa) with 99% CI (mussel; [5]) [kPa] | Average Adhesion (kPa) with 99% CI (mussel; [6]) [kPa] | total animal removal force (in words) (mussel) | mussel adhesion (in words) (mussel) | further results
CCOc1ccc2c(c1)C(C)=CC(C)(C)N2 [6-ethoxy, 6-ethoxy-1,2-dihydro-2,2,4-trimethylquinoline] | 90.9 | 33.6 | 33.9 | 22.3 | 749 | 76.4 | 33.7 | 34.6 | 18.4 | 620 | 21.23 | 0.0948 | 82.60 ± 4.42 | 58.22 ± 6.73 | decreases significantly | reduce mussel adhesion | 
Cc1cc(C(C)(C)C)c(O)c(C(C)(C)C)c1 [BHT, butylated hydroxytoluene] | 66.7 | 41.5 | 41.5 | 17.4 | 722 | 44.7 | 37.0 | 39.5 | 11.1 | 411 | 37.08 | 0.1894 | 87.82 ± 4.98 | 90.24 ± 6.84 | decreases significantly |  | average mussel adhesion (in words) (mussel; 2.5% and 25% BHT-in-primer coatings versus primer-only controls): decreases significantly; total force needed to remove a mussel (in words) (mussel; BHT in the coating, number of plaques combined with adhesion per plaque): drops by up to half; adhesive produced by the animals (in words) (mussel; BHT-containing panels versus primer-only controls): produce less adhesive; force to detach animal (mussel; [7]): ~3.4 N; # of plaques (average) (mussel; [7]): 9.6 plaques; Adhesion (mussel; primer + 2.5% BHT (w/w) coating, Table 3, primer control 184 ± 68 kPa): 135 ± 58 kPa; force to detach animal (mussel; [8]): ~2.2 N; # of plaques (average) (mussel; [8]): 5.2 plaques; Adhesion (mussel; primer + 25% BHT (w/w) coating, Table 3, primer control 184 ± 68 kPa): 110 ± 43 kPa; water contact angle [1]: approximately 108 °
Cc1cc(C(C)(C)C)c(C)c(C(C)(C)C)c1 [DBT, reference compound] | 7.0 | 49.3 | 45.8 | 24.1 | 1430 | 31.6 | 57.3 | 53.1 | 17.2 | 986 | 47.07 | 0.2198 | 80.31 ± 5.08 | 106.34 ± 6.74 |  |  | 
CC(C)(C)c1cccc(O)c1C(C)(C)C [DTBP, 2,3-di-tert-butylphenol] | 17.6 | 56.9 | 66.5 | 30 | 1707 | 70.7 | 40.4 | 42.0 | 16.9 | 683 | 34.11 | 0.1902 | 89.88 ± 8.45 | 82.63 ± 5.24 | decreases significantly | reduce mussel adhesion | 
COc1ccccc1 [anisole] | 21.1 | 42.0 | 39.7 | 20.1 | 844 | 54 | 56.8 | 59.1 | 17.4 | 988 | 33.53 | 0.1686 | 90.03 ± 8.16 | 75.02 ± 5.39 | decreases significantly | reduce mussel adhesion | 
CC(=O)C(=O)O [pyruvic acid] |  |  |  |  |  |  |  |  |  |  |  |  |  |  |  | reduce mussel adhesion | 
